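Following 48 hours of exposure in 96-well plates, responses at five concentrations were used to interpolate endpoints linearly. The concentration for 50% growth inhibition is given as GI50.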 Calls of active or inactive are those of the source. Cut-off read from the data, not from the text of the source: active = GI50 up to about 1.1 µM and inactive = higher.
Key:
Assay in all cases: NCI tumour cell line growth inhibition, 48 h
EKVX = tested on: EKVX
NCI-H226 = tested on: NCI-H226
SN12C = tested on: SN12C
MOLT-4 = tested on: MOLT-4
SF-539 = tested on: SF-539
NCI-H23 = tested on: NCI-H23
SK-MEL-28 = tested on: SK-MEL-28
HOP-62 = tested on: HOP-62
MDA-MB-435 = tested on: MDA-MB-435
K562 = tested on: K562
ACHN = tested on: ACHN
T47D = tested on: T47D
786-0 = tested on: 786-0
HCC 2998 = tested on: HCC 2998
NCI/ADR-RES = tested on: NCI/ADR-RES
SF-295 = tested on: SF-295
SW-620 = tested on: SW-620
KM12 = tested on: KM12
COLO 205 = tested on: COLO 205
MCF7 = tested on: MCF7
MDA-MB-231 = tested on: MDA-MB-231
SK-MEL-2 = tested on: SK-MEL-2
OVCAR-3 = tested on: OVCAR-3
NCI-H522 = tested on: NCI-H522
NCI-H460 = tested on: NCI-H460
A549 = tested on: A549
HL-60 = tested on: HL-60
TK-10 = tested on: TK-10
OVCAR-5 = tested on: OVCAR-5
SR = tested on: SR
LOX IMVI = tested on: LOX IMVI
UACC-257 = tested on: UACC-257
M14 = tested on: M14
PC-3 = tested on: PC-3
DU-145 = tested on: DU-145
HOP-92 = tested on: HOP-92
SNB-19 = tested on: SNB-19
U-251 = tested on: U-251
HT-29 = tested on: HT-29
HCT-15 = tested on: HCT-15
HCT-116 = tested on: HCT-116
RPMI-8226 = tested on: RPMI-8226
CCRF-CEM = tested on: CCRF-CEM
SNB-75 = tested on: SNB-75
SF-268 = tested on: SF-268
BT-549 = tested on: BT-549
Malme-3M = tested on: Malme-3M
Hs-578T = tested on: Hs-578T
OVCAR-8 = tested on: OVCAR-8
UO-31 = tested on: UO-31
MDA-N = tested on: MDA-N
A498 = tested on: A498
RXF 393 = tested on: RXF 393
OVCAR-4 = tested on: OVCAR-4
SK-MEL-5 = tested on: SK-MEL-5
CAKI-1 = tested on: CAKI-1
IGROV-1 = tested on: IGROV-1
SK-OV-3 = tested on: SK-OV-3
UACC-62 = tested on: UACC-62

Structure (SMILES): Cc1nc(N)c(N2CCNCC2)c(O)n1
- GI50 (EKVX): > 100 µM (inactive)
- GI50 (NCI-H226): > 100 µM (inactive)
- GI50 (SN12C): > 100 µM (inactive)
- GI50 (MOLT-4): > 100 µM (inactive)
- GI50 (SF-539): > 100 µM (inactive)
- GI50 (NCI-H23): > 100 µM (inactive)
- GI50 (SK-MEL-28): > 100 µM (inactive)
- GI50 (HOP-62): > 100 µM (inactive)
- GI50 (MDA-MB-435): > 100 µM (inactive)
- GI50 (K562): > 100 µM (inactive)
- GI50 (ACHN): > 100 µM (inactive)
- GI50 (T47D): > 100 µM (inactive)
- GI50 (786-0): > 100 µM (inactive)
- GI50 (HCC 2998): > 100 µM (inactive)
- GI50 (NCI/ADR-RES): > 100 µM (inactive)
- GI50 (SF-295): > 100 µM (inactive)
- GI50 (SW-620): > 100 µM (inactive)
- GI50 (KM12): > 100 µM (inactive)
- GI50 (COLO 205): > 100 µM (inactive)
- GI50 (MCF7): > 100 µM (inactive)
- GI50 (MDA-MB-231): > 100 µM (inactive)
- GI50 (SK-MEL-2): > 100 µM (inactive)
- GI50 (OVCAR-3): 76.7 µM (inactive)
- GI50 (NCI-H522): > 100 µM (inactive)
- GI50 (NCI-H460): > 100 µM (inactive)
- GI50 (A549): > 100 µM (inactive)
- GI50 (HL-60): > 100 µM (inactive)
- GI50 (TK-10): > 100 µM (inactive)
- GI50 (OVCAR-5): > 100 µM (inactive)
- GI50 (SR): > 100 µM (inactive)
- GI50 (LOX IMVI): > 100 µM (inactive)
- GI50 (UACC-257): > 100 µM (inactive)
- GI50 (M14): > 100 µM (inactive)
- GI50 (PC-3): > 100 µM (inactive)
- GI50 (DU-145): > 100 µM (inactive)
- GI50 (HOP-92): > 100 µM (inactive)
- GI50 (SNB-19): > 100 µM (inactive)
- GI50 (U-251): > 100 µM (inactive)
- GI50 (HT-29): > 100 µM (inactive)
- GI50 (HCT-15): > 100 µM
- GI50 (HCT-116): > 100 µM (inactive)
- GI50 (RPMI-8226): > 100 µM (inactive)
- GI50 (CCRF-CEM): > 100 µM (inactive)
- GI50 (SNB-75): > 100 µM (inactive)
- GI50 (SF-268): > 100 µM (inactive)
- GI50 (BT-549): > 100 µM (inactive)
- GI50 (Malme-3M): > 100 µM (inactive)
- GI50 (Hs-578T): > 100 µM (inactive)
- GI50 (OVCAR-8): > 100 µM (inactive)
- GI50 (UO-31): > 100 µM (inactive)
- GI50 (MDA-N): > 100 µM (inactive)
- GI50 (A498): > 100 µM (inactive)

Structure (SMILES): COc1ccc(C2C3CCc4ccccc4C3=NN2S(=O)(=O)c2ccc(Cl)cc2)cc1 (centres undefined)
- GI50 (EKVX): 35.7 µM (inactive)
- GI50 (NCI-H226): 20.7 µM (inactive)
- GI50 (SN12C): 37 µM (inactive)
- GI50 (MOLT-4): 13.1 µM (inactive)
- GI50 (SF-539): 18.3 µM (inactive)
- GI50 (NCI-H23): 33.3 µM (inactive)
- GI50 (HOP-62): 31.8 µM (inactive)
- GI50 (MDA-MB-435): 2.07 µM (inactive)
- GI50 (RXF 393): 12.1 µM (inactive)
- GI50 (K562): 4.98 µM (inactive)
- GI50 (ACHN): 15.4 µM (inactive)
- GI50 (T47D): 10.7 µM (inactive)
- GI50 (786-0): 6.93 µM (inactive)
- GI50 (OVCAR-4): 30.3 µM (inactive)
- GI50 (SK-MEL-5): 16 µM (inactive)
- GI50 (NCI/ADR-RES): 5 µM (inactive)
- GI50 (SF-295): 18.2 µM (inactive)
- GI50 (SW-620): 23.2 µM (inactive)
- GI50 (KM12): 7.08 µM (inactive)
- GI50 (COLO 205): 6.01 µM (inactive)
- GI50 (MCF7): 4.13 µM (inactive)
- GI50 (MDA-MB-231): 17.1 µM (inactive)
- GI50 (SK-MEL-2): 28.4 µM (inactive)
- GI50 (OVCAR-3): 16.6 µM (inactive)
- GI50 (NCI-H522): 9.14 µM (inactive)
- GI50 (NCI-H460): 15.8 µM (inactive)
- GI50 (A549): 27.9 µM (inactive)
- GI50 (HL-60): 17.9 µM (inactive)
- GI50 (TK-10): 32.4 µM (inactive)
- GI50 (OVCAR-5): 47.6 µM (inactive)
- GI50 (SR): 3.01 µM (inactive)
- GI50 (LOX IMVI): 22.8 µM (inactive)
- GI50 (UACC-257): 17.3 µM (inactive)
- GI50 (M14): 18.3 µM (inactive)
- GI50 (PC-3): 17.1 µM (inactive)
- GI50 (DU-145): 30 µM (inactive)
- GI50 (CAKI-1): 16.2 µM (inactive)
- GI50 (HOP-92): 20 µM (inactive)
- GI50 (IGROV-1): 2.61 µM (inactive)
- GI50 (SNB-19): 39.2 µM (inactive)
- GI50 (U-251): 17.6 µM (inactive)
- GI50 (HT-29): 18.1 µM (inactive)
- GI50 (HCT-15): 1.8 µM
- GI50 (HCT-116): 18.3 µM (inactive)
- GI50 (RPMI-8226): 14 µM (inactive)
- GI50 (CCRF-CEM): 17.9 µM (inactive)
- GI50 (SF-268): 18.4 µM (inactive)
- GI50 (BT-549): 44.7 µM (inactive)
- GI50 (Malme-3M): 59.3 µM (inactive)
- GI50 (Hs-578T): 33 µM (inactive)
- GI50 (OVCAR-8): 41.6 µM (inactive)
- GI50 (SK-OV-3): 0.0995 µM (active)
- GI50 (UO-31): 22.6 µM (inactive)
- GI50 (UACC-62): 13.1 µM (inactive)
- GI50 (MDA-N): 2.81 µM (inactive)

Structure (SMILES): Cc1nn(C(=O)c2ccc(Cl)cc2)c2c1C(c1ccc(Cl)cc1)SC(=N)N2 (centres undefined)
- GI50 (EKVX): > 10 µM (inactive)
- GI50 (NCI-H226): > 10 µM (inactive)
- GI50 (SN12C): > 10 µM (inactive)
- GI50 (MOLT-4): > 10 µM (inactive)
- GI50 (SF-539): > 10 µM (inactive)
- GI50 (NCI-H23): > 10 µM (inactive)
- GI50 (SK-MEL-28): > 10 µM (inactive)
- GI50 (HOP-62): > 10 µM (inactive)
- GI50 (MDA-MB-435): > 10 µM (inactive)
- GI50 (RXF 393): > 10 µM (inactive)
- GI50 (K562): > 10 µM (inactive)
- GI50 (ACHN): > 10 µM (inactive)
- GI50 (T47D): > 10 µM (inactive)
- GI50 (786-0): > 10 µM (inactive)
- GI50 (HCC 2998): > 10 µM (inactive)
- GI50 (OVCAR-4): > 10 µM (inactive)
- GI50 (SK-MEL-5): > 10 µM (inactive)
- GI50 (NCI/ADR-RES): > 10 µM (inactive)
- GI50 (SF-295): > 10 µM (inactive)
- GI50 (SW-620): > 10 µM (inactive)
- GI50 (KM12): > 10 µM (inactive)
- GI50 (COLO 205): > 10 µM (inactive)
- GI50 (MCF7): > 10 µM (inactive)
- GI50 (MDA-MB-231): > 10 µM (inactive)
- GI50 (SK-MEL-2): > 10 µM (inactive)
- GI50 (OVCAR-3): > 10 µM (inactive)
- GI50 (NCI-H522): > 10 µM (inactive)
- GI50 (NCI-H460): > 10 µM (inactive)
- GI50 (A549): > 10 µM (inactive)
- GI50 (HL-60): > 10 µM (inactive)
- GI50 (TK-10): > 10 µM (inactive)
- GI50 (OVCAR-5): > 10 µM (inactive)
- GI50 (SR): > 10 µM (inactive)
- GI50 (LOX IMVI): > 10 µM (inactive)
- GI50 (UACC-257): > 10 µM (inactive)
- GI50 (M14): > 10 µM (inactive)
- GI50 (PC-3): > 10 µM (inactive)
- GI50 (DU-145): > 10 µM (inactive)
- GI50 (CAKI-1): > 10 µM (inactive)
- GI50 (HOP-92): > 10 µM (inactive)
- GI50 (IGROV-1): > 10 µM (inactive)
- GI50 (SNB-19): > 10 µM (inactive)
- GI50 (U-251): > 10 µM (inactive)
- GI50 (HT-29): > 10 µM (inactive)
- GI50 (HCT-15): > 10 µM
- GI50 (HCT-116): > 10 µM (inactive)
- GI50 (RPMI-8226): > 10 µM (inactive)
- GI50 (CCRF-CEM): > 10 µM (inactive)
- GI50 (SNB-75): > 10 µM (inactive)
- GI50 (SF-268): > 10 µM (inactive)
- GI50 (BT-549): > 10 µM (inactive)
- GI50 (Malme-3M): > 10 µM (inactive)
- GI50 (Hs-578T): > 10 µM (inactive)
- GI50 (OVCAR-8): > 10 µM (inactive)
- GI50 (SK-OV-3): > 10 µM (inactive)
- GI50 (UACC-62): > 10 µM (inactive)
- GI50 (MDA-N): > 10 µM (inactive)
